Earlier results, collected in publication PMC7753040, “Discovery of a Potent RIPK3 Inhibitor for the Amelioration of Necroptosis-Associated Inflammatory Injury” (Frontiers in Cell and Developmental Biology, 2020).

System: RIPK3
Parameters: method as in Mandal et al., 2014
Conditions: ref Mandal et al., 2014; cited from earlier work

Compound: CC(C)S(=O)(=O)c1ccc2nccc(Nc3ccc4scnc4c3)c2c1 [GSK’872]
- induction of on-target apoptosis: able to induce on-target apoptosis
